# In patent publication US20230083012A1, “DIHYDROPYRIMIDINE DERIVATIVES AND USES THEREOF IN THE TREATMENT OF HBV INFECTION OR OF HBV-INDUCED DISEASES” (priority 2019, published 2023):
# pEC50: −log10 of the molar value. Read-outs that look alike come from different tables or passages of the source.
# Assays:
# HBV = assay: Anti-HBV activity in HepG2.2.15 cells (HBV DNA in culture medium by qPCR); type: cell-based; conditions: HepG2.2.15 cells, 6 days treatment, HBV DNA in culture medium quantified by real-time PCR, read-out: EC50
# In short: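 Secreted HBV DNA was measured by real-time PCR after 6-day compound exposure of HepG2.2.15 cells (2% FBS, 37 °C, re-dosed after 3 days), giving EC50 from 8-point 1:3 series starting at 10 or 1 uM. Cytotoxicity (CC50) run separately at lower cell density, top 100 uM.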
# [1] = Cytotoxicity determination in HepG2.2.15 cells (CCK-8 cell viability); type: cell-based; conditions: human, 6 days treatment, CCK-8 assay, highest concentration 100 uM
# In short: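 Viability measured by CCK-8 absorbance (450 nm, 630 nm reference, 2.5 h at 37° C) after six days of treatment, medium and compound renewed on day 3. Top concentration 100 uM, eight threefold dilutions in triplicate; cells plated at 5,000/well in 2% FBS medium; CC50 derived.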
# [2] = Hepatitis B virus, HepG2.2.15, 144 h
SMILES,pEC50 (HBV; [2]),CC50 at 6 days [1] [µM],pEC50 (HBV)
"COC(=O)C1=C(CN2CC(F)(F)[C@H]3[C@@H]2CCN3CCC(C)(C)C(=O)O)NC(c2nccs2)=N[C@H]1c1cccc(F)c1Cl (single isomer, unassigned) [Compound 128, 4-((cis)-4-((6-(2-Chloro-3-fluorophenyl)-5-(methoxycarbonyl)-2-(thiazol-2-yl)-3,6-dihydropyrimidin-4-yl)methyl)-6,6-difluorohexahydropyrrolo[3,2-b]pyrrol-1(2H)-yl)-2,2-dimethylbutanoic acid]",9.10,40.1,
"CCOC(=O)C1=C(CN2CC(F)(F)[C@H]3[C@@H]2CCN3CC[C@H]2C[C@@H](C(=O)O)C2)NC(c2nccs2)=N[C@H]1c1cccc(F)c1C (single isomer, unassigned) [Compound 129A]",8.11,10.3,
"CCOC(=O)C1=C(CN2CC(F)(F)[C@H]3[C@@H]2CCN3CC[C@H]2C[C@H](C(=O)O)C2)NC(c2nccs2)=N[C@H]1c1cccc(F)c1C (single isomer, unassigned) [Compound 129B]",8.54,12.4,
"CCOC(=O)C1=C(CN2CC(F)(F)[C@H]3[C@@H]2CCN3C[C@@H]2CC[C@@H]2C(=O)O)NC(c2nccs2)=N[C@H]1c1cccc(F)c1C (single isomer, unassigned) [Compound 130A]",8.12,22.4,
"CCOC(=O)C1=C(CN2CC(F)(F)[C@H]3[C@@H]2CCN3C[C@H]2CC[C@H]2C(=O)O)NC(c2nccs2)=N[C@H]1c1cccc(F)c1C (single isomer, unassigned) [Compound 130B]",> 9.30,18.2,
"COC(=O)C1=C(CN2CC(F)(F)[C@H]3[C@@H]2CCN3C[C@@H](C)C(=O)O)NC(c2nccs2)=N[C@H]1c1cccc(F)c1C (single isomer, unassigned) [Compound 131A, 3-((cis)-6,6-Difluoro-4-(((S*)-6-(3-fluoro-2-methylphenyl)-5-(methoxycarbonyl)-2-(thiazol-2-yl)-3,6-dihydropyrimidin-4-yl)methyl)hexahydropyrrolo[3,2-b]pyrrol-1(2H)-yl)-2-methylpropanoic acid]",,44.6,9.30
"COC(=O)C1=C(CN2CC(F)(F)[C@H]3[C@@H]2CCN3C[C@@H](C)C(=O)O)NC(c2nccs2)=N[C@H]1c1cccc(F)c1Cl (single isomer, unassigned) [Compound 132A, 3-((cis)-4-((6-(2-Chloro-3-fluorophenyl)-5-(methoxycarbonyl)-2-(thiazol-2-yl)-3,6-dihydropyrimidin-4-yl)methyl)-6,6-difluorohexahydropyrrolo[3,2-b]pyrrol-1(2H)-yl)-2-methylpropanoic acid]",> 9.30,40.7,
"COC(=O)C1=C(CN2CC(F)(F)[C@H]3[C@@H]2CCN3C[C@H](C)C(=O)O)NC(c2nccs2)=N[C@H]1c1cccc(F)c1Cl (single isomer, unassigned) [Compound 132B, 3-((cis)-4-((6-(2-Chloro-3-fluorophenyl)-5-(methoxycarbonyl)-2-(thiazol-2-yl)-3,6-dihydropyrimidin-4-yl)methyl)-6,6-difluorohexahydropyrrolo[3,2-b]pyrrol-1(2H)-yl)-2-methylpropanoic acid]",7.97,71.8,
"COC(=O)C1=C(CN2CC(F)(F)[C@H]3[C@@H]2CCN3C[C@@H](C)C(=O)O)NC(c2nccs2)=N[C@H]1c1ccc(F)cc1Cl (single isomer, unassigned) [Compound 133A, 3-((cis)-4-((6-(2-Chloro-4-fluorophenyl)-5-(methoxycarbonyl)-2-(thiazol-2-yl)-3,6-dihydropyrimidin-4-yl)methyl)-6,6-difluorohexahydropyrrolo[3,2-b]pyrrol-1(2H)-yl)-2-methylpropanoic acid]",> 9.30,41.7,
"COC(=O)C1=C(CN2CC(F)(F)[C@H]3[C@@H]2CCN3C[C@@H](C)C(=O)O)NC(c2nccs2)=N[C@H]1c1ccc(F)c(F)c1Cl (single isomer, unassigned) [Compound 134A, 3-((cis)-4-((6-(2-chloro-3,4-difluorophenyl)-5-(methoxycarbonyl)-2-(thiazol-2-yl)-3,6-dihydropyrimidin-4-yl)methyl)-6,6-difluorohexahydropyrrolo[3,2-b]pyrrol-1(2H)-yl)-2-methylpropanoic acid]",> 9.30,26.9,
"COC(=O)C1=C(CN2CC(F)(F)[C@H]3[C@@H]2CCN3C[C@H](C)C(=O)O)NC(c2nccs2)=N[C@H]1c1ccc(F)c(F)c1Cl (single isomer, unassigned) [Compound 134B, 3-((cis)-4-((6-(2-chloro-3,4-difluorophenyl)-5-(methoxycarbonyl)-2-(thiazol-2-yl)-3,6-dihydropyrimidin-4-yl)methyl)-6,6-difluorohexahydropyrrolo[3,2-b]pyrrol-1(2H)-yl)-2-methylpropanoic acid]",8.37,24.2,
"CCOC(=O)C1=C(CN2CC(F)(F)[C@H]3[C@@H]2CCN3C[C@@H](C)C(=O)O)NC(c2nccs2)=N[C@H]1c1ccc(F)cc1Cl (single isomer, unassigned) [Compound 135A, 3-((cis)-4-((6-(2-chloro-4-fluorophenyl)-5-(ethoxycarbonyl)-2-(thiazol-2-yl)-3,6-dihydropyrimidin-4-yl)methyl)-6,6-difluorohexahydropyrrolo[3,2-b]pyrrol-1(2H)-yl)-2-methylpropanoic acid]",8.62,25.9,
"CCOC(=O)C1=C(CN2CC(F)(F)[C@H]3[C@@H]2CCN3C[C@H](C)C(=O)O)NC(c2nccs2)=N[C@H]1c1ccc(F)cc1Cl (single isomer, unassigned) [Compound 135B, 3-((cis)-4-((6-(2-chloro-4-fluorophenyl)-5-(ethoxycarbonyl)-2-(thiazol-2-yl)-3,6-dihydropyrimidin-4-yl)methyl)-6,6-difluorohexahydropyrrolo[3,2-b]pyrrol-1(2H)-yl)-2-methylpropanoic acid]",8.00,36.3,
"COC(=O)C1=C(CN2CC(F)(F)[C@H]3[C@@H]2CCN3CCC(C)(C)C(=O)O)NC(c2nccs2)=N[C@H]1c1cccc(F)c1C (single isomer, unassigned) [Compound 136, 4-((cis)-6,6-difluoro-4-((6-(3-fluoro-2-methylphenyl)-5-(methoxycarbonyl)-2-(thiazol-2-yl)-3,6-dihydropyrimidin-4-yl)methyl)hexahydropyrrolo[3,2-b]pyrrol-1(2H)-yl)-2,2-dimethylbutanoic acid]",8.68,34.4,
"[2H]C([2H])(CC(C)(C)C(=O)O)N1CC[C@H]2[C@@H]1C(F)(F)CN2CC1=C(C(=O)OCC)[C@H](c2cccc(F)c2C)N=C(c2nccs2)N1 (single isomer, unassigned) [Compound 137]",9.00,21.8,
"CCOC(=O)C1=C(CN2CC(F)(F)[C@H]3[C@@H]2CCN3CCC(C)(C)C(=O)O)NC(c2nccs2)=N[C@H]1c1ccc(F)c(F)c1Cl (single isomer, unassigned) [Compound 138, 4-((cis)-4-((6-(2-chloro-3,4-difluorophenyl)-5-(ethoxycarbonyl)-2-(thiazol-2-yl)-3,6-dihydropyrimidin-4-yl)methyl)-6,6-difluorohexahydropyrrolo[3,2-b]pyrrol-1(2H)-yl)-2,2-dimethylbutanoic acid]",9.30,14.5,
